≈ marks a conversion by molar mass, not a printed value. Where a SMILES comes first, the peptide text is derived from it. Bridges are numbered along the chain shown (N, C = ends). [ ]: non-standard residue; d: D form. The star is where a group is joined. Octanoyl = CCCCCCCC(=O)*; Dab = NCC[C@H](N)C(=O)O; Abu = CC[C@H](N)C(=O)O
Legend:
[1] = tested on: Lipopolysaccharide (LPS); test: Displacement of dansyl-PMB from LPS by fluorometric assay
[2] = tested on: Pseudomonas aeruginosa; test: Antimicrobial activity against Pseudomonas aeruginosa; assay type: functional, organism-based
[3] = tested on: Escherichia coli; test: Antimicrobial activity against Escherichia coli; assay type: functional
[4] = biological target: Lipopolysaccharide (LPS); test: Displacement of dansyl-PMB from LPS by isothermal titration calorimetry; settings: read-out: IC50
[5] = tested on: Escherichia coli; test: Antimicrobial activity against Escherichia coli assessed as relative sensitizing activity; assay type: functional
[6] = tested on: Escherichia coli; test: Antimicrobial activity against Escherichia coli at 10 ug/mL; assay type: functional

| Structure (SMILES) | IC50 [4] [µM] | Activity [5] [%] | GI [6] [square millimeter] | also measured |
| --- | --- | --- | --- | --- |
| CCCNCC[C@H](NC(=O)CCCCC(C)CC)C(=O)N[C@H](C(=O)N[C@@H](CCN)C(=O)N[C@H]1CCNC(=O)[C@H]([C@@H](C)O)NC(=O)[C@H](CCN)NC(=O)[C@H](CCN)NC(=O)[C@H](CC(C)C)NC(=O)[C@@H](Cc2ccccc2)NC(=O)[C@H](CCN)NC1=O)[C@@H](C)O (some centres not stated) |  |  |  | dansyl-PMB displacement concentration [1]: 2.4 µg/mL; MIC [2]: 0.206 µg/mL (≈ 0.165 µM); MIC [3]: 0.208 µg/mL (≈ 0.167 µM) |
| CC(C)C[C@@H]1NC(=O)[C@@H](Cc2ccccc2)NC(=O)[C@H](CCCCN)NC(=O)[C@@H](NC(=O)[C@H](CCCCN)NC(=O)[C@@H](N)[C@@H](C)O)CCNC(=O)[C@H]([C@@H](C)O)NC(=O)[C@H](CCCCN)NC(=O)[C@H](CCCCN)NC1=O | 30 | 5 |  |  |
| CCNCC[C@H](NC(=O)CCCCC(C)CC)C(=O)N[C@H](C(=O)N[C@@H](CCN)C(=O)N[C@H]1CCNC(=O)[C@H]([C@@H](C)O)NC(=O)[C@H](CCN)NC(=O)[C@H](CCN)NC(=O)[C@H](CC(C)C)NC(=O)[C@@H](Cc2ccccc2)NC(=O)[C@H](CCN)NC1=O)[C@@H](C)O (some centres not stated) |  |  |  | dansyl-PMB displacement concentration [1]: 2.3 µg/mL; MIC [2]: 0.146 µg/mL (≈ 0.119 µM); MIC [3]: 0.112 µg/mL (≈ 0.0909 µM) |
| CC(C)C[C@@H]1NC(=O)[C@@H](Cc2ccccc2)NC(=O)[C@H](CCCCN)NC(=O)[C@@H](NC(=O)[C@H](CCCCN)NC(=O)[C@@H](N)[C@@H](C)O)CCNC(=O)[C@H]([C@@H](C)O)NC(=O)[C@H](CCN)NC(=O)[C@H](CCN)NC1=O | 15 | 4 |  |  |
| CCCNCC[C@@H]1NC(=O)[C@H](CCN)NC(=O)[C@H](CC(C)C)NC(=O)[C@@H](Cc2ccccc2)NC(=O)[C@H](CCN)NC(=O)[C@@H](NC(=O)[C@H](CCN)NC(=O)[C@@H](NC(=O)[C@H](CCN)NC(=O)CCCCC(C)CC)[C@@H](C)O)CCNC(=O)[C@H]([C@@H](C)O)NC1=O (some centres not stated) |  |  |  | dansyl-PMB displacement concentration [1]: 9.5 µg/mL; MIC [2]: 0.763 µg/mL (≈ 0.613 µM); MIC [3]: 0.995 µg/mL (≈ 0.799 µM) |
| CCCCCCCC(=O)N[C@H](C(=O)N[C@H](CO)C(=O)N[C@H]1CCNC(=O)[C@H]([C@@H](C)O)NC(=O)[C@H](CCN)NC(=O)[C@H](CCN)NC(=O)[C@H]([C@H](C)O)NC(=O)[C@@H](Cc2ccccc2)NC(=O)[C@H](CCN)NC1=O)[C@@H](C)O |  |  | 172 |  |
| CC(C)C[C@@H]1NC(=O)[C@@H](Cc2ccccc2)NC(=O)[C@H](CCN)NC(=O)[C@H](CCN)NC(=O)[C@H](NC(=O)[C@@H](N)[C@@H](C)O)CCNC(=O)[C@H]([C@@H](C)O)NC(=O)[C@H](CCN)NC(=O)[C@H](CCN)NC1=O | 8 | 7 |  |  |
| CCCCCCCC(=O)N[C@H](C(=O)N[C@@H](CCN)C(=O)N[C@H]1CCNC(=O)[C@H]([C@@H](C)O)NC(=O)[C@H](CCN)NC(=O)[C@H](CCN)NC(=O)[C@H](CC(C)C)NC(=O)[C@H](Cc2ccccc2)NC(=O)[C@H](CCN)NC1=O)[C@@H](C)O |  |  | 0 |  |
| CC(C)C[C@@H]1NC(=O)[C@@H](Cc2ccccc2)NC(=O)[C@H](CCCN)NC(=O)CN(C(=O)[C@H](CCCN)NC(=O)[C@@H](N)[C@@H](C)O)CCCNC(=O)[C@@H]([C@H](C)O)NC(=O)[C@H](CCCN)NC(=O)[C@H](CCCN)NC1=O | 25 | 2 |  |  |
| CC(C)C[C@@H]1NC(=O)[C@@H](Cc2ccccc2)NC(=O)[C@H](CCCCN)NC(=O)CN(C(=O)[C@H](CCCCN)NC(=O)[C@@H](N)[C@@H](C)O)CCCCNC(=O)[C@@H]([C@H](C)O)NC(=O)[C@H](CCCCN)NC(=O)[C@H](CCCCN)NC1=O | 35 | 4 |  |  |
| CC(C)C[C@@H]1NC(=O)[C@@H](Cc2ccccc2)NC(=O)[C@H](CN)NC(=O)[C@@H](NC(=O)[C@H](CN)NC(=O)[C@@H](N)[C@@H](C)O)CNC(=O)[C@H]([C@@H](C)O)NC(=O)[C@H](CN)NC(=O)[C@H](CN)NC1=O | 30 | 11 |  |  |
| CCCCCCCC(=O)N[C@H](C(=O)N[C@@H](CC)C(=O)N[C@H]1CCNC(=O)[C@H]([C@@H](C)O)NC(=O)[C@H](CCN)NC(=O)[C@H](CCN)NC(=O)[C@H](CC(C)C)NC(=O)[C@H](CC(C)C)NC(=O)[C@H](CCN)NC1=O)[C@@H](C)O (Octanoyl-T[Abu][Dab][Dab]LL[Dab][Dab]T; lactam 3-C) |  |  | 0 |  |
| CC(C)C[C@@H]1NC(=O)[C@@H](Cc2ccccc2)NC(=O)[C@H](CC(=N)N)NC(=O)[C@@H](NC(=O)[C@H](CC(=N)N)NC(=O)[C@@H](N)[C@@H](C)O)CCNC(=O)[C@H]([C@@H](C)O)NC(=O)[C@H](CC(=N)N)NC(=O)[C@H](CC(=N)N)NC1=O | 3.8 | 25 |  |  |
| CC(C)C[C@@H]1NC(=O)[C@@H](Cc2ccccc2)NC(=O)[C@H](CCCCN)NC(=O)[C@@H](NC(=O)[C@H](CCCCN)NC(=O)[C@@H](N)[C@@H](C)O)CCNC(=O)[C@@H]([C@H](C)O)NC(=O)[C@H](CCN)NC(=O)[C@H](CCN)NC1=O | 14 | 9 |  |  |
| CCCCCCCC(=O)N[C@H](C(=O)N[C@@H](CC)C(=O)N[C@H]1CCNC(=O)[C@H](CC(C)C)NC(=O)[C@H](CCN)NC(=O)[C@H](CCN)NC(=O)[C@H](CC(C)C)NC(=O)[C@@H](Cc2ccccc2)NC(=O)[C@H](CCN)NC1=O)[C@@H](C)O (Octanoyl-T[Abu][Dab][Dab][dF]L[Dab][Dab]L; lactam 3-C) |  |  | 50 |  |
| CCCCCCC(=O)N[C@H](C(=O)N[C@H](CO)C(=O)N[C@H]1CCNC(=O)[C@H]([C@@H](C)O)NC(=O)[C@H](CCN)NC(=O)[C@H](CCN)NC(=O)[C@H](CC(C)C)NC(=O)[C@@H](Cc2ccccc2)NC(=O)[C@H](CCN)NC1=O)[C@@H](C)O |  |  | 80 |  |
| CC(C)C[C@@H]1NC(=O)[C@@H](Cc2ccccc2)NC(=O)[C@H](CCN)NC(=O)[C@@H](NC(=O)[C@H](CCN)NC(=O)[C@@H](N)[C@@H](C)O)CCNC(=O)[C@H]([C@@H](C)O)NC(=O)[C@H](CCCCN)NC(=O)[C@H](CCCCN)NC1=O | 12 | 40 |  |  |
| CCCCCCCC(=O)N[C@H](C(=O)N[C@@H](CC)C(=O)N[C@H]1CCNC(=O)[C@H]([C@@H](C)O)NC(=O)[C@H](CCN)NC(=O)[C@H](CCN)NC(=O)[C@H](CC(C)C)NC(=O)[C@@H](Cc2ccccc2)NC(=O)[C@H](CCN)NC1=O)[C@@H](C)O |  |  | 32 |  |
| CCCCCCCC(=O)N[C@H](C(=O)N[C@H](C)C(=O)N[C@H]1CCNC(=O)[C@H]([C@@H](C)O)NC(=O)[C@H](CCN)NC(=O)[C@H](CCN)NC(=O)[C@H]([C@H](C)O)NC(=O)[C@@H](Cc2ccccc2)NC(=O)[C@H](CCN)NC1=O)[C@@H](C)O |  |  | 60 |  |
| CCCCCCCCCC(=O)N[C@H](C(=O)N[C@H](CO)C(=O)N[C@H]1CCNC(=O)[C@H]([C@@H](C)O)NC(=O)[C@H](CCN)NC(=O)[C@H](CCN)NC(=O)[C@H](CC(C)C)NC(=O)[C@@H](Cc2ccccc2)NC(=O)[C@H](CCN)NC1=O)[C@@H](C)O |  |  | 130 |  |
| CC(C)C[C@@H]1NC(=O)[C@@H](Cc2ccccc2)NC(=O)[C@H](CCN)NC(=O)[C@@H](NC(=O)[C@H](CCN)NC(=O)[C@@H](N)[C@@H](C)O)CCNC(=O)[C@H]([C@@H](C)O)NC(=O)[C@H](CCN)NC(=O)[C@H](CCN)NC1=O (stereo in doubt; 202) [POLYMYXIN B NONAPEPTIDE] | 8 | 5 |  |  |

From ChEMBL document CHEMBL1156251, “Structure--activity relationships of polymyxin antibiotics” (J Med Chem, 2010)
